Measurements published in US8809283B2, “Proteasome inhibitors and uses thereof” (Natuderm, LLC, priority 2005, dated 2014).
Where two headings read alike, the source gives them in different places.

Key:
[1] = system: SVR cells; experiment: SVR cell proliferation assay; format: cell-based; details: 10 mg/ml, 72 hours exposure, Coulter Counter
Description: The filtered aqueous extract was lyophilized to a dry powder, which was dissolved in distilled water and analyzed by HPLC, and 5 fractions were collected. HPLC fractions were lyophilized. Each fraction was reconstituted into 10 mg/ml solutions, and the ability to inhibit proliferation of SVR cells was tested.
SVR cells (1×10^4) were plated for 24 hours in a 24-well plate. The media was then changed to DMEM containing purified extract at a concentration of 10 mg/ml. Cells were exposed to drug for 72 hours and were counted with a Coulter Counter (Coulter, Hialeah, Fla.) according to the method of Lamontagne et al (LaMontagne et al., (2000) Am. J. Pathol. 157, 1937-1945). […] In order to determine the component of mate tea responsible, the aqueous extract was fractionated by HPLC, and the ability of the fractions to inhibit SVR cell proliferation was assessed. […] The structures of T-2, T-5, and T-6 were elucidated by proton NMR and mass spectroscopy (FIG. 1). […] The NMR spectra of the compounds are shown below.

[2] = biological target: purified prokaryotic 20S proteasome (Methanosarcina thermophila, UniProt Q9P992); experiment: Chymotrypsin-like activity of purified 20S proteasome (fluorogenic substrate Suc-Leu-Leu-Val-Tyr-AMC); format: biochemical; details: for inhibition at 100 µM: read-out: inhibition of proteasomal chymotrypsin-like activity
Sequence of purified prokaryotic 20S proteasome (Q9P992 10-210): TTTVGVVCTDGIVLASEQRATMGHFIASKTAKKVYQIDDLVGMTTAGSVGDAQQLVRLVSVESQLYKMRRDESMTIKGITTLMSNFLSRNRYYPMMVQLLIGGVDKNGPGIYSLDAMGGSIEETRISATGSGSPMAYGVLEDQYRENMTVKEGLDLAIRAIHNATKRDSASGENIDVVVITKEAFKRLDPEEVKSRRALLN
Sequence of purified prokaryotic 20S proteasome (Q59565 whole entry, further chain): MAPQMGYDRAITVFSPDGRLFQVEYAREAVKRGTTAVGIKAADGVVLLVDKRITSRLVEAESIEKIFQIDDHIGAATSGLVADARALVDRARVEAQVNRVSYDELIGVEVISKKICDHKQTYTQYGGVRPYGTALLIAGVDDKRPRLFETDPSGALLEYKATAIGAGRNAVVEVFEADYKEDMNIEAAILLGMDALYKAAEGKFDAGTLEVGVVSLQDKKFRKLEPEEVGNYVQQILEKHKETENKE
Description: This example describes the how to analyze the inhibitory effect of isolated fractions of mate tea in vitro, using purified 20S proteasome. The chymotrypsin-like activity of purified 20S proteasome was measured as previously described (Nam et al., (2001) J. Biol. Chem. 276, 13322-13330). Briefly, purified prokaryotic 20S proteasome (0.5 μg) was incubated with 20 μM fluorogenic peptide substrate, Suc-Leu-Leu-Val-Tyr-AMC for 30 min at 37° C. in 100 μl of assay buffer (50 mM Tris-HCl, pH 7.5), with or without a mate tea fraction at indicated concentrations. After incubation, production of hydrolyzed 7-amido-4-methyl-coumarin (AMC) groups was measured using a multi-well plate VersaFluor™ Fluorometer with an excitation filter of 380 nm and an emission filter of 460 nm (Bio-Rad).
The quinic acid esters resemble the proteasome inhibitor (−)-epigallocatechin gallate [(−)-EGCG] in that they contain hydroxylated aromatic carboxylic acids esterified to a polyhydroxylated aliphatic ring (FIG. 3). Based upon this similarity, and the previous finding that epigallocatechin gallate is an inhibitor of proteasomes (Ren et al., (2000) Oncogene 19, 1419-1427; Nam et al., (2001) J. Biol. Chem. 276, 13322-13330)), the ability of fractions T-2, T-5, and T-6 to inhibit proteasome function was assessed. To determine the ability of quinic acid esters to inhibit proteasome activity, a fluorescent substrate activity assay was performed with purified 20S proteasome. Epigallocatechin gallate (EGCG, Sigma Chemical Company, St Louis, Mo.) was used as a positive control for proteasome inhibition. To ensure complete inhibition of the proteasome, 100 μM EGCG was used. The compound 3,5-dicaffeoylquinic acid (3,5-DCQ) was tested against proteasome activity in three different concentrations: 20, 100, and 200 μg/ml, which correspond to 37, 183, and 366 μM respectively (FIG. 4).

[3] = biological target: T1, 26S proteasome in Jurkat T cell extracts (Homo sapiens, UniProt P28074); experiment: Proteasome chymotrypsin-like activity in Jurkat T cell extracts; format: biochemical; details: 60 min at 37° C.
T1 construct: Whole cell extracts (20 μg) of Jurkat T cells; endogenous in cells; host or cells: Jurkat T cells (whole cell extract)
T1 sequence (P28074 60-263): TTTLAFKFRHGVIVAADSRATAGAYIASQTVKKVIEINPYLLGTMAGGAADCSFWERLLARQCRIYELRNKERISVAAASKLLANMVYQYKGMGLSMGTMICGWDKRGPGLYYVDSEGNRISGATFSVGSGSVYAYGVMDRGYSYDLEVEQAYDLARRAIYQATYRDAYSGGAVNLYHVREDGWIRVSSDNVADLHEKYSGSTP
Description: This example describes the how to analyze the inhibitory effect of isolated fractions of mate tea in vivo, using cell extracts of the Jurkat cancer cell line. Whole cell extracts (20 μg) of Jurkat T cells were incubated for 60 min at 37° C. with 20 μM of fluorogenic peptide substrate Suc-Leu-Leu-Val-Tyr-AMC in […] of the assay buffer, with or without a mate tea fraction at indicated concentrations. The hydrolyzed AMCs were quantified as described above.
The abilities of 3,5-DCQ and neochlorogenic acid to inhibit the 26S proteasome activity in Jurkat cell extracts was tested.

[4] = system: Jurkat T cells; experiment: Cell cycle analysis of Jurkat T cells by flow cytometry (propidium iodide); format: cell-based; details: for arrest of Jurkat cells in G2/M phase: 2 μg/ml for 24 h; for increase of G2/M population: 20 μg/ml for 24 h
Description: To investigate the inhibitory effect of the fractions on cell cycle, Jurkat cells exposed to each fraction were analyzed by flow cytometry. Cell cycle analysis based on DNA content was performed as described previously (See Nam et al., 2001). The cell cycle distribution is shown as the percentage of cells containing G1, S, G2, and M DNA judged by propidium iodide staining.
The proteasome-inhibitory potencies of 3,5-DCQ and neochlorogenic acid were identified as being associated with growth-inhibitory activity in vivo, based on treating Jurkat T cells with each compound at a concentration of 2 or 20 μg/ml for 24 h. After treatment, the cells were harvested and assayed by flow cytometry. […] In contrast, neochlorogenic acid at the same concentrations had no effects.

[5] = system: inositol-1,4,5-triphosphate 3 kinase (GgIP3K-A); experiment: Inositol-1,4,5-triphosphate 3 kinase activity assay (Mayr et al.); format: biochemical; details: FIG. 6
Description: An assay was performed as described in Mayr et al., (2005) J. Biol. Chem. 280: 13229-13240, incorporated herein by reference. […] Inhibition of the kinase activity may be important in HIV.

[6] = at 100 μM, purified 20S proteasome
[7] = at 20 μg/ml (37 μM 3,5-DCQ; 56 μM neochlorogenic acid)
[8] = at 100 μg/ml (183 μM 3,5-DCQ; 282 μM neochlorogenic acid)

For `O=C(/C=C/c1ccc(O)c(O)c1)O[C@@H]1[C@H](O)C[C@@](O)(C(=O)O)C[C@H]1OC(=O)/C=C/c1ccc(O)c(O)c1` (stereo in doubt) [T-6, 3,4-Dicaffeoylquinic acid], the “inhibition of SVR cell proliferation” value [1] was “most potent inhibitory effects” and the “inhibition of proteasomal chymotrypsin-like activity” value [2, 6] was 40%.
With `O=C(C=Cc1ccc(O)c(O)c1)OC1CC(O)(C(=O)O)CC(OC(=O)C=Cc2ccc(O)c(O)c2)C1O` (stereo not shown) [3,5-DCQ, 3,5-Dicaffeoylquinic acid] the “inhibition of SVR cell proliferation” value [1] was “most potent inhibitory effects”, the inhibition at 100 µM [2, 6] was 60% and the inhibition at 20 µg/mL [3, 7] was ~50%. For the same compound, the inhibition at 100 µg/mL [3, 8] was ~85%, the “arrest of Jurkat cells in G2/M phase” value [4] was “very slight arrest” and the “increase of G2/M population” value [4] was ~10%.
With `CC(C)(C)c1cc(CCC(=O)OCC(COC(=O)CCc2cc(C(C)(C)C)c(O)c(C(C)(C)C)c2)(COC(=O)CCc2cc(C(C)(C)C)c(O)c(C(C)(C)C)c2)COC(=O)CCc2cc(C(C)(C)C)c(O)c(C(C)(C)C)c2)cc(C(C)(C)C)c1O` [PTTC, Pentaerythritol tetrakis (3,5-di-tert-butyl-4-hydroxyhydrocinnamate), reference compound] the “activity against proteasomes (qualitative)” value ([2]; used as a control, chymotrypsin-like proteasome activity (FIG. 5)) was “activity against proteasomes” and the “inhibition of IP-3 kinase activity (qualitative)” value [5] was “inhibit”.
`O=C(C=Cc1ccc(O)c(O)c1)OC1CC(O)(C(=O)O)CC(O)C1O` (stereo not shown) [neochlorogenic acid, 5-Caffeoylquinic acid] was tested, and the “inhibition of SVR cell proliferation” value [1] was “most potent inhibitory effects”, the inhibition at 100 µM [2] was 21% and the “inhibition of 26S proteasome activity in Jurkat cell extracts” value [3, 7] was ~30%. For the same compound, the “inhibition of 26S proteasome activity in Jurkat cell extracts” value [3, 8] was ~75%, the “arrest of Jurkat cells in G2/M phase” value [4] was “no effects” and the “increase of G2/M population” value [4] was “no effects”.
